Patent US8546394B2, “Substituted [1,2,4]triazolo[4,3-A]pyrazine 11-beta-hydroxysteroid dehydrogenase inhibitors” (Bristol-Myers Squibb Company, priority 2007, dated 2013)
pIC50: −log10 of the molar value. Where a name gives a salt, the structure may show the parent alone.

test system: mildly overweight individuals with type 2 diabetes; assay: not given; details: seven day study, versus placebo; cited from earlier work

Row | Compound | hepatic glucose production
1 | CC1(C)[C@@H](OC(=O)CCC(=O)O)CC[C@]2(C)[C@H]3C(=O)C=C4[C@@H]5C[C@@](C)(C(=O)O)CC[C@]5(C)CC[C@@]4(C)[C@]3(C)CC[C@@H]12 [carbenoxolone] | decrease in hepatic glucose production

target: T1, recombinant human 11beta-HSD1 (Homo sapiens, UniProt P28845); assay: 11β-HSD1 SPA enzyme assay (in vitro inhibition, human microsomes, 3H-cortisone); assay type: biochemical; details: microsomes from HEK 293 EBNA cells, 40 nM 3H-cortisone, 4 hrs room temperature
T1 construct: Full length recombinant human 11β-HSD1 cDNAs and the cDNA encoding human 11β-HSD2 were expressed stably in HEK 293 EBNA cells; made in house
T1 sequence (P28845 whole entry): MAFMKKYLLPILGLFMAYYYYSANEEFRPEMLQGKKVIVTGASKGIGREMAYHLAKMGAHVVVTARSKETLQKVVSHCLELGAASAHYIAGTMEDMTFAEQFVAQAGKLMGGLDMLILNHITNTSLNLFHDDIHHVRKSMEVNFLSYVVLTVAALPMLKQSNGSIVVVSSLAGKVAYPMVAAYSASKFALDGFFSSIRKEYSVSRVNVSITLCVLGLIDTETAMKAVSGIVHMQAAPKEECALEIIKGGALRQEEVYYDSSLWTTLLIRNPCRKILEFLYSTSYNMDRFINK
Experimental: The in vitro inhibition of recombinant human 11beta-HSD1 was determined as follows.
[^3H]-Cortisone with a specific radioactivity of 50 Ci/mmol (ART 743, Lot: 050906) was from American Radiolabeled Chemicals, Inc. (St Louis, Mo.); monoclonal ab to Cortisol (P01-9294M-P, Lot: L-28) was from East Coast Bio., (North Berwick, Me.); Protein A-yttrium silicate, type-1, SPA bead NJ® (RPN-143) was from Amersham LifeSciences, (Piscataway, N.J.); 384 well-Optiplate384® (#6007299) was from PerkinElmer (Boston, Mass.); DPBS, pH 7.4 (14040) is from GIBCO, (Grand Island, N.Y.); carbenoxolone (C4790) is from Sigma, (St Louis, Mo.).
Full length recombinant human 11β-HSD1 cDNAs and the cDNA encoding human 11β-HSD2 were expressed stably in HEK 293 EBNA cells. Cells were grown in DMEM (high glucose) containing MEM non-essential amino acids, L-glutamine, hygromycin B (200 μg/ml), and G-418 (200 μg/ml) in the presence of 10% FBS.
Human 11β-HSD1 transfected HEK 293 EBNA cells were grown to 80% confluency and the cell pellet was quick frozen and stored at −80° C. before purification. Cell paste, 40 g from −80° C. storage, was thawed in water and then 100 ml of homogenization buffer H (0.01 M sodium phosphate pH 6.5 containing 0.25 M sucrose and protease inhibitor cocktail (Roche #1836145 1 tablet per 50 ml) were added to completely thaw the paste. The cell paste suspension was homogenized using a Polytron for 20 seconds to create a homogeneous mixture. Additional buffer H was added to a volume of 300 ml and cells were broken open using a N2-bomb (at 4° C.) in two batches by treating at 500 psi. The extract was centrifuged at 750×g for 30 min. The supernatant was centrifuged at 20,000×g for 30 min. The supernatant was further centrifuged at 105,000×g for 60 min. The 105,000×g pellet was resuspended in buffer H and centrifuged at 105,000×g for 60 min. The microsome pellet was scraped from the bottom of tube and resuspended in 0.01M phosphate buffer, pH 6.5 containing protease inhibitors (Roche #1836145, 1 tablet per 50 ml). Aliquots were stored at −80° C. until needed. The protein concentration was measured by the BioRad method using BSA standard.
Compounds were dissolved in DMSO to obtain 10 mM stock concentrations. From the 10 mM stock, the compounds were diluted in DMSO to achieve the concentrations.
11β-HSD1 SPA Enzyme Assay
11β-HSD1 was assayed by Scintillation Proximity assay in a 384-well Perkin Elmer white plate. The dose response of the compounds was determined using 11 half-log dilutions of compound in DMSO in duplicate. To each well, 0.5 μl of compound dilution in DMSO were added. 15 μl of assay buffer (for blanks) or 15 μl of human microsomes in assay buffer were added next and the plates were incubated for 10 min at room temperature. The final microsomal protein concentration was 1.1 μg/assay. Duplicates were in the same plate one row below the other. 10 μl of ^3H-cortisone (final concentration 40 nM) was added to each well and the plate was spun down to mix and bring down the contents to the bottom of the wells. The plates were incubated at room temperature with gentle shaking for 4 hrs. The reaction was stopped with addition of 10 μl of 10 mM carbenoxolone. Then, 0.5 mg of yttrium silicate SPA beads coupled to anti-cortisol antibody in 20 μl were added to all the wells of plate, which were spun down once more and incubated at room temperature overnight. The plate was read in a TopCount® (1 min/well). Data were uploaded automatically to Tool Set, a Lead Evaluation informatics program for data capture and calculation. Graphs were generated with the Curve Master program.

Row | Compound | pIC50
2 | CC(C)(c1ccc(Cl)cc1)c1nnc2c(C3CC3)nccn12 [Example 1, 3-(2-(4-Chlorophenyl)propan-2-yl)-8-cyclopropyl-[1,2,4]triazolo[4,3-a]pyrazine] | 8.74
3 | CC(C)(Oc1ccccc1)c1nnc2c(Cl)nccn12 [Example 16] | 5.22
4 | CC(C)(O)c1ccnn2c(C3(c4ccc(Cl)cc4)CC3)nnc12 [Example 36, 2-(3-(1-(4-Chlorophenyl)cyclopropyl)-[1,2,4]-triazolo[4,3-b]pyridazin-8-yl)propan-2-ol] | 8.92
5 | Clc1ccc(C2(c3nnc4c5sccc5ncn34)CC2)cc1 [Example 28, 3-(1-(4-Chlorophenyl)cyclopropyl)thieno[2,3-e][1,2,4]triazolo[4,3-c]pyrimidine] | 7.07
6 | C=CCCc1nccn2c(C3(c4ccc(Cl)cc4)CC3)nnc12 [Example 25] | 8.89
7 | FC(F)(F)Oc1ccccc1Oc1nccn2c(C3(c4ccc(Cl)cc4)CC3)nnc12 [Example 4, 8-(2-(Trifluoromethoxy)phenoxy)-3-(1-(4-chlorophenyl)cyclopropyl)-[1,2,4]triazolo[4,3-a]pyrazine] | 9.30
8 | OC12CCC(c3nnc4c(Oc5ccccc5Cl)nccn34)(CC1)C2 [Example 27] | 6.47
9 | Clc1ccc(C2(c3nnc4c5c(cnn34)CCCC5)CC2)cc1 [Example 29, 3-(1-(4-Chlorophenyl)cyclopropyl)-7,8,9,10-tetrahydro-[1,2,4]-triazolo[3,4-a]phthalazine TFA Salt] | 7.92
10 | Clc1ccc(C2(c3nnc4nc(C5CC5)ccn34)CC2)cc1 [Example 3, 3-(1-(4-Chlorophenyl)cyclopropyl)-7-cyclopropyl-[1,2,4]triazolo[4,3-a]pyrimidine] | 6.34
11 | CC(C)(Oc1ccc(Cl)cc1Cl)c1nnc2c(C3CC3)nccn12 [Example 38] | 8.74
12 | CC(C)(c1ccc(F)cc1)c1nnc2c(Cl)nccn12 [Example 41] | 5.29
13 | Clc1ccc(C2(c3nnc4c(C5CC5)nccn34)CCC2)c(Cl)c1 [Example 6] | 9.22
14 | CC(C)(O)c1nccn2c(C3(c4ccc(Cl)cc4)CC3)nnc12 [Example 35, 2-(3-(1-(4-Chlorophenyl)cyclopropyl)-[1,2,4]triazolo[4,3-a]pyrazin-8-yl)propan-2-ol TFA salt] | 8.10
